According to patent US20070225518A1, “5-Aminolevulinic acid salts and their use” (priority 2006, published 2007):
Entries after “also recorded” stand apart in the source; their conditions may differ.

Experiments:
[1] = system: Friend erythroleukemia cells (FLC); test: PpIX formation in FLC by HPLC analysis of extracted porphyrins; format: cell-based; settings: 0.1 mg/ml, 4 h, retention time typical of PpIX
Experimental: (§1) Cell culture. Friend erythroleukemia cells (FLC) and B16 melanoma cells were grown in a DMEM medium and RPMI 1640, respectively, (Biological Industries, Beit-Haemek, Israel), supplemented with 10% fetal calf serum and antibiotics, on tissue culture plates (Corning, Cambridge, Mass., USA) and incubated at 37° C. in a humidified atmosphere with 8% CO2. The cells were re-cultured twice a week.
(§2) Extraction of porphyrins from cells. FLC were incubated with 0.1 mg/ml ALA-HCl, AN 301, or AN 302 for 4 h. The cells were then washed and suspended in 750 μl glacial acetic acid. The cells were then sonicated on ice, at an amplitude of 1-2, three times for 45 sec, with 15 sec between successive sonications. Following the sonication, the lysate was transferred to glass test tubes containing 2.25 ml ethyl acetate, vigorously vortexed and centrifuged for 15 min at 3000 rpm. 2.6 ml of the supernatant were then transferred to glass test tubes containing 500 μl/1000 μl 1 M HCl and incubated overnight at 4° C. in the dark. Two phases formed, a lower inorganic phase and an upper organic phase containing the porphyrins. 300-700 μl from the organic phase was carefully removed with a Pasteur pipet. The porphyrins were then examined by HPLC and by spectroscopy.
High pressure liquid chromatograph [HPLC] analysis of porphyrins. Extracted porphyrins were purified by HPLC on an Apex Presil C18 8μ column (Jones, Chromatography, Lakewood, Colo.) using a 0-50% linear gradient aetonitrile (+0.1% trifluoroacetic acid) over 40-min elution at 47% acetonitrile.

[2] = system: Friend erythroleukemia cells (FLC); test: PpIX formation in FLC by fluorescence spectroscopy of extracted porphyrins; format: cell-based; settings: 0.1 mg/ml, 4 h, excitation 410 nm, characteristic major peak at 633
Experimental: as §1, §2
Fluorometry of porphyrins. Fluorescence spectroscopy of the extrated porphyrins was examined using a SLM-Aminco spectrometer. Emission spectra were recorded following excitation at 410 nm.

[3] = system: Friend erythroleukemia cells (FLC); test: Stability of stored ALA salt solutions, read out as porphyrin formation in FLC by flow cytometry; format: cell-based; settings: for Stability of solutions on storage (porphyrin formation in cells): 0.1 mg/ml, 7 days at 4° C. and at 37° C.; for Stability in aqueous and non-aqueous media: aqueous as well as non-aqueous media such as PEG
Experimental: (§3) Flow cytometry for cellular PpIX. […] After the incubation, the cells were washed with Ca^+2—Mg+^2 free PBS and scraped off with a rubber policeman. After a 10 min centrifugation at 1100 RPM, the supernatant was decanted and the pellet was resuspended in 0.5 ml Ca^+2—Mg^+2 free PBS. The cell suspension was filtered and measured using a Fluorescence Activated Cell Sorter (Becton Dickinson FACS Calibur, Mountain View, Calif., USA). 10,000 cells were measured in each sample using an excitation wavelength of 488 nm, and emission >600 nm, respectively.
. […] (a), 37° C. (b), or after no storage (c). In controls (d), no ALA salt was presented to the cells. The cells were then examined for the presence of PpIX by flow cytometry at […]. […]

[4] = background statement, cited from earlier work
[5] = system: Friend erythroleukemia cells (FLC); test: Flow cytometry for cellular PpIX after uptake of ALA salt; format: cell-based; settings: stock solutions in H2O, PEG, buffer pH7
Experimental: as §1, §3
. Stock solutions of the ALA salt were made up in (a) H2O, (b) PEG, and (c) buffer pH7. […]. The ALA salt was then presented to the cells, and biosynthesis of PpIX was determined by flow cytometry. In controls (d) no ALA salt was presented to the cells. Typical results are shown in FIG. 3 in which the horizontal axis is florescence intensity (in arbitrary units), and the vertical axis is the number of cells having a given intensity level. […]

[6] = system: B16 melanoma cells; test: ALA treatment, photosensitization and MTT assay; format: cell-based; settings: 0.6 mM, 4 hr, irradiation 360-410 nm, MTT after 24 hr
Experimental: as §1
ALA treatment and photosensitization. […] At the end of the incubation period, the cells were irradiated using a Vilber Lourmat lamp, VL-206BL, delivering a power density of 22.5 mW at 360-410 nm. Light intensity was measured with a Nova photometer (Ophir Optronics, Jerusalem).
MTT assay. The effect of PDT on cell viability was measured after 24 hr. by a modified MTT assay which is based on the ability of live cells to cleave the tetrazolium ring to a molecule that absorbs at 590 nm in active mitochondria (Mosmann, 1983). 2×10^3 cells were grown in 96-well plates. The growth medium was replaced and 20 μl MTT (3-(4,5-dimethylthiazol-2-yl)-2,5-diphenyl tetrazolium bromide), 5 mg/ml PBS (Sigma, Chemical Co, St. Louis, Mo., USA), were added to each well. The cells were further incubated at 37° C. for 2 h. For lysis of the cells, N,N-dimethyformamide was added to the media for 5 hours and absorbance was then measured at 590 nm.

[7] = stock solution stored 7 days, 4° C.
[8] = stock solution stored 7 days, 37° C.

Cl.NCC(=O)CCC(=O)O [ALA-HCl, reference compound]
PpIX formation in the cells as determined by HPLC [1]: same porphyrin (PpIX) was generated
PpIX formation in the cells by spectroscopy [2]: same porphyrin product was generated
Stability of solutions on storage (porphyrin formation in cells) [3]: completely degraded
porphyrin formation in FLC by flow cytometry [3, 7]: 3.5 arbitrary units
porphyrin formation in FLC by flow cytometry [3, 8]: 3.5 arbitrary units
porphyrin formation in FLC by flow cytometry ([3]; stock solution, storage time 0): 60 arbitrary units
Solubility in aqueous media ([4]; aqueous media): soluble
Solubility in organic solvents including polyethylene glycol (PEG) ([4]; organic solvents including PEG): insoluble

NCC(=O)CCC(=O)O.O=S(=O)(O)c1ccccc1 [AN-301, 5-Amino4-oxopentanoic acid benzenesulfonate]
PpIX formation in the cells as determined by HPLC [1]: same porphyrin (PpIX) was generated
PpIX formation in the cells by spectroscopy [2]: same porphyrin product was generated
formation of PpIX inside the cells by flow cytometry [5]: leads to the formation of PpIX inside the cells
Stability of solutions on storage (porphyrin formation in cells) ([3]; benzenesulfonate): stable; also recorded: retained significant activity
Stability in aqueous and non-aqueous media [3]: stable
porphyrin formation in FLC by flow cytometry [3, 7]: 39 arbitrary units
porphyrin formation in FLC by flow cytometry [3, 8]: 39 arbitrary units
porphyrin formation in FLC by flow cytometry ([3]; stock solution, storage time 0): 57 arbitrary units
Cell death / viability (MTT activity) following illumination [6]: as effective as ALA-HCl in causing cell death
Solubility in stock solution solvents (H2O, PEG, and buffer pH7): soluble in each of these three solvents
Lipid solubility PEG (PEG): soluble in PEG
Solubility in aqueous and non-aqueous media (aqueous as well as non-aqueous media such as PEG): soluble

NCC(=O)CCC(=O)O [AN-302, 5-Amino-4-oxopentanoic acid 2-naphtylsulfonate]
PpIX formation in the cells as determined by HPLC [1]: same porphyrin (PpIX) was generated
PpIX formation in the cells by spectroscopy [2]: same porphyrin product was generated
formation of PpIX inside the cells by flow cytometry [5]: leads to the formation of PpIX inside the cells
Stability of solutions on storage (porphyrin formation in cells) [3]: stable; also recorded: retained significant activity
porphyrin formation in FLC by flow cytometry [3, 7]: 23 arbitrary units
porphyrin formation in FLC by flow cytometry [3, 8]: 29 arbitrary units
porphyrin formation in FLC by flow cytometry ([3]; stock solution, storage time 0): 49 arbitrary units
Cell death / viability (MTT activity) following illumination [6]: as effective as ALA-HCl in causing cell death

NCC(=O)CCC(=O)O.O=S(=O)(O)c1ccc2ccccc2c1 [AN-302, 5-Amino-4-oxopentanoic acid 2-naphtylsulfonate]
Stability in aqueous and non-aqueous media [3]: stable
